A word on the IC50: it is the point on the concentration scale where inhibition reaches its midpoint.

This test has as its target T1, CSF-1R (His-tagged kinase domain, amino acids 568-912) (Homo sapiens, UniProt P07333).
T1 construct: The His-tagged kinase domain of CSF-1R (i.e., amino acids 568-912, GeneBank ID NM_005211); His; made in house; host or cells: baculovirus infected SF+Express insect cells
T1 sequence (P07333 568-912): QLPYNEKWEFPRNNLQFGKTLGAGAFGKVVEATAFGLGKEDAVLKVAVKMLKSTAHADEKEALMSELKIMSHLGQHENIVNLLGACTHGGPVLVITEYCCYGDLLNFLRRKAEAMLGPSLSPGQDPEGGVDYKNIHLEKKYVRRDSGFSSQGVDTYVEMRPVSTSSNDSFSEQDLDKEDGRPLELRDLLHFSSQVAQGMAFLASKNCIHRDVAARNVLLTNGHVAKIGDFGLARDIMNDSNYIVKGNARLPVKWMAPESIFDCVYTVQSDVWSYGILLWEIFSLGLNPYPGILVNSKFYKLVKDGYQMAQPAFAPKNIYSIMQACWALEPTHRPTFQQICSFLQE
The experiment in a line: Assay 2: CSF1R in-vitro AlphaScreen Assay. The format is biochemical. Particulars: phosphorylation of pEY substrate; 0.46 nM CSF-1R, 12 mM ATP in mix. The procedure: Assay 2: CSF1R in-vitro AlphaScreen Assay
Activity of purified CSF-1R was determined in-vitro using an Amplified Luminescent Proximity Homogeneous Assay (ALPHA) (Perkin Elmer, Mass.), which measures phosphorylation of CSF-1R substrate, biotinylated poly-glutamine-tyrosine peptide (pEY-HTRF CisBio 61GT0BLD), as described below. The His-tagged kinase domain of CSF-1R (i e, amino acids 568-912, GeneBank ID NM_005211) was purified from baculovirus infected SF+Express insect cells (1.4×10^6 cells/ml), French pressed and chromatographed through subsequent QIAgen Ni-NTA, Superflow Mono Q HR 10/10, and Superdex 200 SEC columns.
The phosphorylation of the CSF-1R substrate in the presence and absence of the compound of interest was determined. Briefly, 5 ul of Enzyme/Substrate/adenosine triphosphate (ATP) mix consisting of 0.46 nM of purified CSF-1R, 12 nM pEY substrate, and 12 mM ATP in 1.2× buffer was preincubated with 2 ul of compound for 20 minutes at 25° C. Reactions were initiated with 5 ul of Metal mix consisting of 24 mM MgCl2 in 1.2× buffer and incubated at 25° C. for 90 minutes and reactions were stopped by addition of 5 ul of Detection mix consisting of 20 mM HEPES, 102 mM ethylenediamine tetraacetic acid, 1.65 mg/ml BSA, 136 mM NaCl, 40 ug/ml Streptavidin donor beads (Perkin Elmer, Mass., Catalog #6760002), and 40 ug/ml phosphotyrosine-specific antibody coated acceptor beads (Perkin Elmer, Mass., Catalog #6760620). Plates were incubated at 25° C. for 18 hours in the dark. Phosphorylated substrate was detected by an EnVision plate reader (Perkin Elmer) 680 nm excitation, 520-620 nm emission. Data was graphed and IC50s calculated using Excel Fit (Microsoft).

`CCOc1cc2nnc(C(N)=O)c(Nc3ccc(C)cc3F)c2cc1N1CCN(CCO)CC1` [Example 43, 7-Ethoxy-4-[(2-fluoro-4-methylphenyl)amino]-6-[4-(2-hydroxyethyl)piperazin-1-yl]cinnoline-3-carboxamide] displayed an IC50 of 3 nM. The figure for `COc1cc2nnc(C(N)=O)c(Nc3ccc(C)cc3F)c2cc1N1CCN2C(=NNC2O)C1` (stereo not drawn) [Example 32, 4-[(2-Fluoro-4-methylphenyl)amino]-6-(3-hydroxy-2,5,6,8-tetrahydro[1,2,4]triazolo[4,3-a]pyrazin-7(3H)-yl)-7-methoxycinnoline-3-carboxamide] is 8 nM.

For `COc1cc2nnc(C(N)=O)c(Nc3ccc(C)cc3F)c2cc1C1=CCN(C(C)C)CC1` [Example 29, 4-[(2-Fluoro-4-methylphenyl)amino]-6-(1-isopropyl-1,2,3,6-tetrahydropyridin-4-yl)-7-methoxycinnoline-3-carboxamide], the IC50 amounted to 7 nM. Consider `COc1cc2nnc(C(N)=O)c(Nc3cccc(Cl)c3F)c2cc1N1C[C@@H](C)N[C@@H](C)C1` [Example 45, 4-[(3-Chloro-2-fluorophenyl)amino]-6-[(3R,5S)-3,5-dimethylpiperazin-1-yl]-7-methoxycinnoline-3-carboxamide], for which the IC50 came out at 6 nM. This IC50 and that of the compound before are within 1.5-fold of each other.

The compound `COc1cc2nnc(C(N)=O)c(Nc3ccc(C)cc3F)c2cc1C1CCN(S(C)(=O)=O)CC1` [Example 50, 4-[(2-Fluoro-4-methylphenyl)amino]-7-methoxy-6-[1-(methylsulfonyl)piperidin-4-yl]cinnoline-3-carboxamide] yielded an IC50 of 33 nM. This IC50 lies about 5.5-fold higher than the previous one. The figure for `COc1cc2nnc(C(N)=O)c(Nc3ccc(C)cc3F)c2cc1C1=CCN(CCO)CC1` [Example 34, 4-[(2-Fluoro-4-methylphenyl)amino]-6-[1-(2-hydroxyethyl)-1,2,3,6-tetrahydropyridin-4-yl]-7-methoxycinnoline-3-carboxamide] is 5 nM; for `COc1cc2nnc(C(N)=O)c(Nc3ccc(C)cc3F)c2cc1N1C[C@@H](C)O[C@@H](C)C1` [Example 37, 6-[(2R,6S)-2,6-Dimethylmorpholin-4-yl]-4-[(2-fluoro-4-methylphenyl)amino]-7-methoxycinnoline-3-carboxamide] it is 71 nM. The figure for `COc1cc2nnc(C(N)=O)c(Nc3ccc(F)cc3F)c2cc1N1C[C@@H](C)N[C@@H](C)C1` [Example 44, 4-[(2,4-Difluorophenyl)amino]-6-[(3R,5S)-3,5-dimethylpiperazin-1-yl]-7-methoxycinnoline-3-carboxamide] is 16 nM; for `COc1cc2nnc(C(N)=O)c(Nc3ccc(C)cc3F)c2cc1N1CCN2CCCC2C1` (stereo not drawn) [Example 33, 4-[(2-Fluoro-4-methylphenyl)amino]-6-(hexahydropyrrolo[1,2-a]pyrazin-2(1H)-yl)-7-methoxycinnoline-3-carboxamide] it is 12 nM.

For the origin of these results see US20110098283A1, “3-CINNOLINECARBOXAMIDE DERIVATIVES AND THEIR USE FOR TREATING CANCER” (ASTRAZENECA AB, priority 2007, published 2011).
